Measured values from patent US9604933B2, “Pyrazolochalcones as potential anticancer agents” (COUNCIL OF SCIENTIFIC AND INDUSTRIAL RESEARCH, priority 2013, dated 2017).

How the values were obtained:
[1] = system: DU-145; test: NCI SRB cytotoxicity, prostate DU-145; format: cell-based; details: Homo sapiens, 48 h exposure
Method: (§1) The pyrazolochalcones (7e, 8e, 10e, 11e, 12e, 13e and 8f) have been tested against fifty nine human tumor cell lines derived from nine cancer types (leukemia, non-small cell lung cancer, colon cancer, CNS cancer, melanoma, ovarian cancer, renal cancer, prostate cancer and breast cancer) as per the NCI protocol. For each compound, dose response curves for individual cell lines have been measured at a minimum of five concentrations at 10 fold dilutions. A protocol of 48 h continuous drug exposure has been used, and a sulforhodamine B (SRB) protein assay has been used to estimate cell viability or growth. The concentration for 50% cell growth inhibition (GI50), 50% cell death (LC50, 50% growth) and total cell growth inhibition (TGI, 0% growth) values were tabulated (Table-1). DMSO was used as control to calculate the values of GI50, LC50 and TGI. The compounds 7e, 8e, 10e, 11e, 12e, 13e and 8f has been evaluated for their in vitro cytotoxicity in […] cell lines from nine human cancer types of leukemia (K-562, SR), non-small cell lung (Hop-62, NCI-H226, NCI-H522), colon (HCT-116, HCT-15, HCC-2998), CNS (SF-539), melanoma (SK-MEL-5, UACC-62, M14), ovarian (IGROV1), renal (A498), prostate (PC3) and breast (BT-549, MDA-MB-435, HS578T) origin. The results are expressed as percent of cell growth determined relative to that of untreated control cells (Table 2).

[2] = system: HCT-116; test: NCI SRB cytotoxicity, colon HCT-116; format: cell-based; details: Homo sapiens, 48 h exposure
Method: as §1

[3] = system: MDA-MB-435; test: NCI SRB cytotoxicity, melanoma MDA-MB-435; format: cell-based; details: Homo sapiens, Melanoma panel MDA-MB-435, 48 h exposure
Method: as §1

[4] = system: SN12C; test: NCI SRB cytotoxicity, renal SN12C; format: cell-based; details: Homo sapiens, 48 h exposure
Method: as §1

[5] = system: SF-539; test: NCI SRB cytotoxicity, CNS SF-539; format: cell-based; details: Homo sapiens, 48 h exposure
Method: as §1

[6] = system: T-47D; test: NCI SRB cytotoxicity, breast T-47D; format: cell-based; details: Homo sapiens, T47D, 48 h exposure
Method: as §1

[7] = system: Prostate; test: NCI SRB cytotoxicity, prostate panel average; format: cell-based, human; details: average of cell lines; for CC50: read-out: Log10 LC50 (concentration in mol/L causing 50% cell death) (converted)
Method: as §1
(§2) Each cancer type represents the average of six to eight different cancer cell lines.

[8] = system: HCT-15; test: NCI SRB cytotoxicity, colon HCT-15; format: cell-based; details: Homo sapiens, 48 h exposure
Method: as §1

[9] = system: RXF 393; test: NCI SRB cytotoxicity, renal RXF 393; format: cell-based; details: Homo sapiens, 48 h exposure
Method: as §1

[10] = system: MALME-3M; test: NCI SRB cytotoxicity, melanoma MALME-3M; format: cell-based; details: Homo sapiens, 48 h exposure
Method: as §1

[11] = system: Renal; test: NCI SRB cytotoxicity, renal panel average; format: cell-based, human; details: average of cell lines; for CC50: read-out: Log10 LC50 (concentration in mol/L causing 50% cell death) (converted)
Method: as §1, §2

[12] = system: SK-MEL-5; test: NCI SRB cytotoxicity, melanoma SK-MEL-5; format: cell-based; details: Homo sapiens, 48 h exposure
Method: as §1

[13] = system: ACHN; test: NCI SRB cytotoxicity, renal ACHN; format: cell-based; details: Homo sapiens, 48 h exposure
Method: as §1

[14] = system: CCRF-CEM; test: NCI SRB cytotoxicity, leukemia CCRF-CEM; format: cell-based; details: Homo sapiens, 48 h exposure
Method: as §1

[15] = system: BT-549; test: NCI SRB cytotoxicity, breast BT-549; format: cell-based; details: Homo sapiens, 48 h exposure
Method: as §1

[16] = system: MDA-MB-435; test: NCI SRB cytotoxicity, breast panel MDA-MB-435; format: cell-based; details: Homo sapiens, 48 h exposure
Method: as §1

[17] = system: HL-60(TB); test: NCI SRB cytotoxicity, leukemia HL-60(TB); format: cell-based; details: Homo sapiens, 48 h exposure
Method: as §1

[18] = system: A549/ATCC; test: NCI SRB cytotoxicity, non-small cell lung A549/ATCC; format: cell-based; details: Homo sapiens, 48 h exposure
Method: as §1

[19] = system: SF-268; test: NCI SRB cytotoxicity, CNS SF-268; format: cell-based; details: Homo sapiens, 48 h exposure
Method: as §1

[20] = system: HOP-62; test: NCI SRB cytotoxicity, non-small cell lung HOP-62; format: cell-based; details: Homo sapiens, 48 h exposure
Method: as §1

[21] = system: SNB-75; test: NCI SRB cytotoxicity, CNS SNB-75; format: cell-based; details: Homo sapiens, 48 h exposure
Method: as §1

[22] = system: OVCAR-3; test: NCI SRB cytotoxicity, ovarian OVCAR-3; format: cell-based; details: Homo sapiens, 48 h exposure
Method: as §1

[23] = system: TK-10; test: NCI SRB cytotoxicity, renal TK-10; format: cell-based; details: Homo sapiens, 48 h exposure
Method: as §1

[24] = system: Melanoma; test: NCI SRB cytotoxicity, melanoma panel average; format: cell-based, human; details: average of cell lines; for LC50: read-out: Log10 LC50 (concentration in mol/L causing 50% cell death) (converted)
Method: as §1, §2

[25] = system: UO-31; test: NCI SRB cytotoxicity, renal UO-31; format: cell-based; details: Homo sapiens, 48 h exposure
Method: as §1

[26] = system: Breast; test: NCI SRB cytotoxicity, breast panel average; format: cell-based, human; details: average of cell lines; for CC50: read-out: Log10 LC50 (concentration in mol/L causing 50% cell death) (converted)
Method: as §1, §2

[27] = system: UACC-257; test: NCI SRB cytotoxicity, melanoma UACC-257; format: cell-based; details: Homo sapiens, 48 h exposure
Method: as §1

[28] = system: RPMI-8226; test: NCI SRB cytotoxicity, leukemia RPMI-8226; format: cell-based; details: Homo sapiens, 48 h exposure
Method: as §1

[29] = system: OVCAR-4; test: NCI SRB cytotoxicity, ovarian OVCAR-4; format: cell-based; details: Homo sapiens, 48 h exposure
Method: as §1

[30] = system: OVCAR-8; test: NCI SRB cytotoxicity, ovarian OVCAR-8; format: cell-based; details: Homo sapiens, 48 h exposure
Method: as §1

[31] = system: NCI-H460; test: NCI SRB cytotoxicity, non-small cell lung NCI-H460; format: cell-based; details: Homo sapiens, 48 h exposure
Method: as §1

[32] = system: HOP92; test: NCI SRB cytotoxicity, non-small cell lung HOP92; format: cell-based; details: Homo sapiens, HOP-92, 48 h exposure
Method: as §1

[33] = Homo sapiens, read-out: Log10 GI50 (concentration in mol/L causing 50% growth inhibition) (converted)

| SMILES | GI50 [2] [µM] | GI50 [3] [µM] | GI50 [4] [µM] | GI50 [5] [µM] | GI50 [6] [µM] | CC50 ([7]; Homo sapiens) [mol/L] | Log10 TGI (concentration in mol/L causing total growth inhibition (0% growth)) [7] [mol/L] | GI50 [8] [µM] | GI50 [9] [µM] | GI50 [10] [µM] | CC50 ([11]; Homo sapiens) [µM] | Log10 TGI (concentration in mol/L causing total growth inhibition (0% growth)) [11] [mol/L] | GI50 [12] [µM] | GI50 [13] [µM] | GI50 [14] [µM] | GI50 [15] [µM] | GI50 [16] [µM] | GI50 [17] [µM] | GI50 [18] [µM] | GI50 [19] [µM] | further results |
| --- | --- | --- | --- | --- | --- | --- | --- | --- | --- | --- | --- | --- | --- | --- | --- | --- | --- | --- | --- | --- | --- |
| COc1cc(-c2cc(/C=C/C(=O)c3ccc4c(c3)OCO4)[nH]n2)cc(OC)c1OC [11e, (E)-1-(benzo[d][1,3]dioxol-5-yl)-3-(3-(3,4,5-trimethoxyphenyl)-1H-pyrazol-5-yl)prop-2-en-1-one] | 1.85 | 2.39 | 3.94 | 2.07 | 2.51 | 0.0001 | −4.94 | 2.12 | 1.48 | 4.42 | 42.7 | −4.94 | 4.51 | 1.88 | 1.57 | 2.37 | 1.4 | 2.17 | 4.32 | 2.97 | GI50 [1]: 2.72 µM; Log10 GI50 (concentration in mol/L causing 50% growth inhibition) [7]: −4 mol/L; Log10 GI50 (concentration in mol/L causing 50% growth inhibition) [11]: −4.37 mol/L; GI50 [20]: 2.18 µM; GI50 [21]: 2.01 µM; GI50 [22]: 3.38 µM; GI50 [23]: 2.33 µM; LC50 ([24]; Homo sapiens): 72.4 µM; Log10 GI50 (concentration in mol/L causing 50% growth inhibition) [24]: −4.14 mol/L; Log10 TGI (concentration in mol/L causing total growth inhibition) [24]: −4.52 mol/L; GI50 [25]: 1.91 µM; CC50 ([26]; Homo sapiens): 295 µM; Log10 GI50 (concentration in mol/L causing 50% growth inhibition) [26]: −3.53 mol/L; Log10 TGI (concentration in mol/L causing total growth inhibition (0% growth)) [26]: −4.60 mol/L; GI50 [27]: 2.46 µM; GI50 [28]: 0.51 µM; GI50 [29]: 3.8 µM; GI50 [30]: 2.85 µM; GI50 [31]: 2.12 µM |
| COc1cc(-c2cc(/C=C/C(=O)c3ccc(Cl)c(Cl)c3)[nH]n2)cc(OC)c1OC [12e, (E)-1-(3,4-dichlorophenyl)-3-(3-(3,4,5-trimethoxyphenyl)-1H-pyrazol-5-yl)prop-2-en-1-one] | 2.95 | 5.65 | 13.7 | 4.31 | 1.66 | 0.0001 | −4.00 | 4.29 | 2.7 | 29.2 | 93.3 | −4.22 | 13.4 | 21.4 | 2.15 | 8.4 | 1.98 | 7.18 | 18.7 | 13.7 | GI50 [7, 33]: 5.89 µM; GI50 [11, 33]: 8.91 µM; GI50 [20]: 1.72 µM; GI50 [21]: 8.7 µM; GI50 [22]: 6.99 µM; GI50 [23]: 8.34 µM; GI50 [24, 33]: 13.2 µM; LC50 ([24]; Homo sapiens): 95.5 µM; Log10 TGI (concentration in mol/L causing total growth inhibition) [24]: −4.21 mol/L; GI50 [25]: 5.73 µM; GI50 [26, 33]: 4.47 µM; CC50 ([26]; Homo sapiens): 100 µM; Log10 TGI (concentration in mol/L causing total growth inhibition (0% growth)) [26]: −4.41 mol/L; GI50 [27]: 16.3 µM; GI50 [28]: 0.53 µM; GI50 [29]: 10.8 µM; GI50 [30]: 6.3 µM; GI50 [31]: 4.9 µM; GI50 [32]: 2.53 µM |
| COc1cc(-c2cc(/C=C/C(=O)c3ccc(F)c(F)c3)[nH]n2)cc(OC)c1OC [13e, (E)-1-(3,4-difluorophenyl)-3-(3-(3,4,5-trimethoxyphenyl)-1H-pyrazol-5-yl)prop-2-en-1-one] | 4 | 2.88 | 3.37 | 3.76 | 2.45 | 0.0001 | −5.24 | 3.01 | 2.05 | 2.96 | 93.3 | −4.71 | 2.27 | 3.26 | 3.8 | 4.11 | 2.22 | 2.48 | 2.43 | 3.15 | Log10 GI50 (concentration in mol/L causing 50% growth inhibition) [7]: −5.78 mol/L; Log10 GI50 (concentration in mol/L causing 50% growth inhibition) [11]: −5.56 mol/L; GI50 [20]: 4.39 µM; GI50 [21]: 2.9 µM; GI50 [22]: 2.39 µM; GI50 [23]: 2.29 µM; LC50 ([24]; Homo sapiens): 64.6 µM; Log10 GI50 (concentration in mol/L causing 50% growth inhibition) [24]: −5.56 mol/L; Log10 TGI (concentration in mol/L causing total growth inhibition) [24]: −5.00 mol/L; GI50 [25]: 2.63 µM; CC50 ([26]; Homo sapiens): 97.7 µM; Log10 GI50 (concentration in mol/L causing 50% growth inhibition) [26]: −5.56 mol/L; Log10 TGI (concentration in mol/L causing total growth inhibition (0% growth)) [26]: −4.83 mol/L; GI50 [27]: 1.75 µM; GI50 [28]: 1.76 µM; GI50 [29]: 2.2 µM; GI50 [30]: 2.88 µM; GI50 [31]: 2.96 µM |
